The NIST ThermoML archive (doi:10.1016/j.jct.2009.05.006)

How the values were obtained:
[1] = excess molar enthalpy (molar enthalpy of mixing); xn = mol fraction of the nth substance listed; conditions: 298.15 K, 101 kPa, Liquid, Calvet calorimetry
[2] = xn = mol fraction of the nth substance listed; conditions: 298.15 K, 101 kPa, Liquid, Vibrating tube method

BrCCCBr [1,3-dibromopropane] + CCCCOC(C)=O
[1]
Conditions	excess molar enthalpy [kJ/mol]
x2 = 0.0548	0.008
x2 = 0.1295	0.012
x2 = 0.2133	0.008
x2 = 0.2909	-0.007
x2 = 0.3612	-0.036
x2 = 0.424	-0.071
x2 = 0.4792	-0.105
x2 = 0.5321	-0.121
x2 = 0.6141	-0.124
x2 = 0.7077	-0.116
x2 = 0.808	-0.091
x2 = 0.9143	-0.055

BrCCCCBr [1,4-dibromobutane] + CCCCOC=O
Conditions	excess molar enthalpy [kJ/mol]	mass density [kg/m3]
[1], x2 = 0.0646	0.074	–
[1], x2 = 0.1478	0.132	–
[1], x2 = 0.2392	0.177	–
[1], x2 = 0.3291	0.204	–
[1], x2 = 0.4058	0.211	–
[1], x2 = 0.4726	0.204	–
[1], x2 = 0.5295	0.195	–
[1], x2 = 0.5817	0.182	–
[1], x2 = 0.6425	0.162	–
[1], x2 = 0.7078	0.138	–
[1], x2 = 0.7787	0.106	–
[1], x2 = 0.8648	0.069	–
[1], x2 = 0.9404	0.028	–
[2], x2 = 0.0702	–	1756.08
[2], x2 = 0.1221	–	1708.91
[2], x2 = 0.1836	–	1652.89
[2], x2 = 0.241	–	1600.45
[2], x2 = 0.3018	–	1544.61
[2], x2 = 0.4249	–	1431.07
[2], x2 = 0.4765	–	1383.26
[2], x2 = 0.5374	–	1326.55
[2], x2 = 0.6529	–	1218.52
[2], x2 = 0.7677	–	1110.31
[2], x2 = 0.8248	–	1056.19
[2], x2 = 0.8824	–	1001.42
[2], x2 = 0.9353	–	950.88

BrCCBr [1,2-dibromoethane] + CCCCOC(C)=O
[1]
Conditions	excess molar enthalpy [kJ/mol]
x2 = 0.0399	-0.001
x2 = 0.0964	-0.003
x2 = 0.1625	-0.016
x2 = 0.2339	-0.043
x2 = 0.3039	-0.073
x2 = 0.3717	-0.103
x2 = 0.4237	-0.129
x2 = 0.4749	-0.147
x2 = 0.5228	-0.152
x2 = 0.5985	-0.153
x2 = 0.6854	-0.139
x2 = 0.7854	-0.116
x2 = 0.8989	-0.062

CCCCOC(=O)CCC [butyl butanoate] + BrCCCBr
Conditions	excess molar enthalpy [kJ/mol]	mass density [kg/m3]
[1], x1 = 0.0478	0.023	–
[1], x1 = 0.1102	0.039	–
[1], x1 = 0.1831	0.044	–
[1], x1 = 0.2568	0.032	–
[1], x1 = 0.3257	0.004	–
[1], x1 = 0.3879	-0.033	–
[1], x1 = 0.4528	-0.068	–
[1], x1 = 0.5333	-0.091	–
[1], x1 = 0.6324	-0.103	–
[1], x1 = 0.7588	-0.094	–
[1], x1 = 0.8755	-0.066	–
[2], x1 = 0.079	–	1834.63
[2], x1 = 0.1205	–	1768.32
[2], x1 = 0.206	–	1641.3
[2], x1 = 0.2513	–	1578.66
[2], x1 = 0.3045	–	1509.31
[2], x1 = 0.356	–	1445.76
[2], x1 = 0.4085	–	1384.26
[2], x1 = 0.4703	–	1315.94
[2], x1 = 0.5404	–	1243.38
[2], x1 = 0.5989	–	1186.32
[2], x1 = 0.7409	–	1059.86
[2], x1 = 0.8162	–	998.93
[2], x1 = 0.8997	–	935.58
[2], x1 = 0.9428	–	904.65

BrCCCCCCBr [1,6-dibromohexane] + CCCCOC(=O)CC
Conditions	excess molar enthalpy, [1] [kJ/mol]	mass density, [2] [kg/m3]
x2 = 0.0686	–	1552.3
x2 = 0.0731	0.028	–
x2 = 0.1212	–	1514.66
x2 = 0.1582	0.049	–
x2 = 0.1829	–	1470.4
x2 = 0.2418	0.057	1427.98
x2 = 0.2995	–	1386.24
x2 = 0.3151	0.05	–
x2 = 0.3861	0.026	–
x2 = 0.4152	–	1302.26
x2 = 0.4485	0.001	–
x2 = 0.4752	–	1258.56
x2 = 0.5064	-0.028	–
x2 = 0.5318	-0.044	–
x2 = 0.5419	-0.045	–
x2 = 0.5954	–	1170.51
x2 = 0.596	-0.06	–
x2 = 0.6527	–	1128.4
x2 = 0.6658	0.067	–
x2 = 0.7123	–	1084.48
x2 = 0.7456	0.066	–
x2 = 0.7652	–	1045.44
x2 = 0.8249	–	1001.25
x2 = 0.834	0.053	–
x2 = 0.8847	–	956.84
x2 = 0.9306	0.022	–
x2 = 0.9365	–	918.31
